The values that follow come from US12281139B2, “Mogrosides, methods of obtaining the same, and uses” (The Coca-Cola Company, priority 2018, dated 2025).

Holding throughout (format): in vivo
Assay [1] in a line: Sensory evaluation of CC-00436 vs 5% Sucrose (trained sensory panel taste test, mock beverages at 4° C.). Conditions: mean ± standard deviation, CC-00436 400 ppm in water, reference 5% sucrose. More on the design: Sweetness In Mouth / Sweetness Overall Max / Bitterness In Mouth / Bitterness Overall Max: scale not given here. How it is done:
The following mock beverages were prepared: A trained sensory panel conducted the taste test. Samples were served at approximately 4° C. Panelists were instructed to take 1 sip of the sample, hold in mouth for 5 seconds, expectorate, and rate the given attributes. A 5 minute break was placed between each sample and panelists were instructed to cleanse their palates with at least 1 bite of unsalted cracker and 2 sips of filtered water. Samples were randomized within each session for each panelist. The following attributes were evaluated: • Sweet taste intensity: maximum level of sweetness in mouth during 5 seconds • Bitter taste intensity: maximum level of bitterness in mouth during 5 seconds • Overall maximum sweet intensity: maximum sweet intensity experienced from the time the sip is taken up to 1 minute • Overall maximum bitter intensity: maximum sweet intensity experienced from the time the sip is taken up to 1 minute • Sweet linger intensity: sweet intensity 1 minute after tasting the sample • Bitter aftertaste intensity: bitter intensity 1 minute after tasting the sample

Assay [2] can be described thus: Sensory evaluation of CC-00367 and CC-00371 vs Reb M 95% (trained sensory panel taste test, mock beverage samples, 400 ppm in water at 4° C.). The note with it: mean panel score; for Bitter Aftertaste Intensity: bitter intensity 1 minute after tasting; for Overall Max Sweetness: from the time the sip is taken up to 1 minute; for Bitter Intensity In Mouth: maximum level of bitterness in mouth during 5 seconds; for Sweet Intensity In Mouth: maximum level of sweetness in mouth during 5 seconds; for Sweet Linger Intensity: sweet intensity 1 minute after tasting. Here is the method: FIG. 1: Taste attribute comparison of CC-00371 and CC-00367 compared to Reb M 95% (all at 400 ppm) in water at 4° C.
(§1) The following mock beverage samples were prepared:
(§2) A trained sensory panel conducted the taste test. Samples were served at approximately 4° C. Panelists were instructed to take 1 sip of the sample, hold in mouth for 5 seconds, expectorate, and rate the given attributes. A 5 minute break was placed between each sample and panelists were instructed to cleanse their palates with at least 1 bite of unsalted cracker and 2 sips of filtered water. Samples were randomized within each session for each panelist.
(§3) The following attributes were evaluated: • Sweet taste intensity: maximum level of sweetness in mouth during 5 seconds • Bitter taste intensity: maximum level of bitterness in mouth during 5 seconds • Overall maximum sweet intensity: maximum sweet intensity experienced from the time the sip is taken up to 1 minute • Overall maximum bitter intensity: maximum sweet intensity experienced from the time the sip is taken up to 1 minute • Sweet linger intensity: sweet intensity 1 minute after tasting the sample • Bitter aftertaste intensity: bitter intensity 1 minute after tasting the sample
(§4) An ANOVA, with Sample as fixed effects and Panelist as random effects was used to determine significance between the samples for each attribute at the 90% and 95% Confidence Level, two-tailed. Fishers LSD was used to determine significant differences between mean scores.
The results are shown in Table 75 and depicted in FIG. 1: […]

Test in assay [3]: as above
The note with it: mean panel score, from the time the sip is taken up to 1 minute.

A short description of assay [4]: Sensory evaluation of CC-00401 and CC-00403 vs 7% Sucrose (trained sensory panel taste test, mock beverage samples at 4° C.). The arrangement: Sweetness In Mouth / Sweetness Overall Max / Bitterness In Mouth / Bitterness Overall Max: scale not given here. The note with it: mean ± standard deviation, test sweeteners 400 ppm in water, reference 7% sucrose. Here is the method:
as §1, §2, §3, §4

Turning to `C[C@H](CC[C@@H](O[C@@H]1OC(CO[C@@H]2OC(CO)[C@@H](O)[C@H](O)C2O)C(O)[C@@H](O)C1O[C@@H]1OC(CO)[C@@H](O)[C@H](O)C1O)C(C)(C)O)[C@H]1CC[C@@]2(C)C3CC=C4[C@@H](CC[C@H](O[C@@H]5OC(CO[C@@H]6OC(CO[C@H]7OC(CO)[C@@H](O)[C@H](O)C7O)[C@@H](O)[C@H](O)C6O)[C@@H](O)[C@H](O)C5O)C4(C)C)[C@]3(C)[C@H](O)C[C@]12C` (stereo partly drawn) [CC-00436, mogro-3-O-[α-D-glucopyranosyl-(1→6)-β-D-glucopyranosyl (1→6)-β-D-glucopyranoside]-24-O-{[β-D-glucopyranosyl-(1→2)]-[β-D-glucopyranosyl-(1→6)]-β-D-glucopyranoside}], in assay [1], the “Bitterness In Mouth” value is given as 1.5 ± 1.9, the “Bitterness Linger (~60 sec)” value came to 0.7 ± 0.8, the “Bitterness Overall Max” value is given as 2.1 ± 1.7 and the “Sweetness In Mouth” value is listed as 5.2 ± 2.1. Also, in assay [1], the “Sweetness Linger (~60 sec)” value is 2.9 ± 2.5 and the “Sweetness Overall Max” value is given as 5.7 ± 2.1.
“mogro-3-O-[β-D-glucopyranosyl (1→6)-β-D-glucopyranoside]-24-O-{[β-D-glucopyranosyl-(1→2)]-[(β-D-glucopyranosyl-(1β3))-β-D-glucopyranosyl-(1β6)]-β-D-glucopyranoside} [CC-00371]”: in assay [2], the “Bitter Aftertaste Intensity” value turned out to be 1.5 B, the “Overall Max Sweetness” value came out at 9.3 A, the “Bitter Intensity In Mouth” value worked out at 0.9 B and the “Sweet Intensity In Mouth” value is given as 7.5 A. In assay [2], the “Sweet Linger Intensity” value is 5.8 A. Also, the “Overall Max Bitterness**” value in assay [3] is on record as 2.1 B.
Regarding `C[C@H](CC[C@@H](O[C@@H]1OC(CO[C@@H]2OC(CO)[C@@H](O)[C@H](O)C2O)C(O)[C@@H](O)C1O[C@@H]1OC(CO)[C@@H](O[C@@H]2OC(CO)[C@@H](O)[C@H](O)C2O)[C@H](O)C1O)C(C)(C)O)[C@H]1CC[C@@]2(C)C3CC=C4[C@@H](CC[C@H](O[C@@H]5OC(CO[C@@H]6OC(CO)[C@@H](O)[C@H](O)C6O)[C@@H](O)[C@H](O)C5O)C4(C)C)[C@]3(C)[C@H](O)C[C@]12C` (stereo partly drawn) [CC-00367, mogro-3-O-[β-D-glucopyranosyl (1→6)-β-D-glucopyranoside]-24-O-{[(β-D-glucopyranosyl-(1→4))-β-D-glucopyranosyl-(1→2)]-[β-D-glucopyranosyl-(1→6)]-β-D-glucopyranoside}], in assay [2], the “Bitter Aftertaste Intensity” value is listed as 1.4 B, the “Overall Max Sweetness” value was found to be 4.9 B, the “Bitter Intensity In Mouth” value is 1.3 B and the “Sweet Intensity In Mouth” value was 3.8 B. Further, the “Sweet Linger Intensity” value in assay [2] is recorded as 2.6 B. Besides, the “Overall Max Bitterness**” value in assay [3] came out at 2.2 B.
For the compound `C=C1C[C@@]23CC[C@H]4[C@@](C)(CCC[C@@]4(C)C(=O)O[C@@H]4O[C@H](CO)[C@@H](O)[C@H](O[C@@H]5O[C@H](CO)[C@@H](O)[C@H](O)[C@H]5O)[C@H]4O[C@@H]4O[C@H](CO)[C@@H](O)[C@H](O)[C@H]4O)[C@@H]2CC[C@]1(O[C@@H]1O[C@H](CO)[C@@H](O)[C@H](O[C@@H]2O[C@H](CO)[C@@H](O)[C@H](O)[C@H]2O)[C@H]1O[C@@H]1O[C@H](CO)[C@@H](O)[C@H](O)[C@H]1O)C3` [Reb M 95%, rebaudioside M, reference compound], in assay [2], the “Bitter Aftertaste Intensity” value is recorded as 1.7 B, the “Overall Max Sweetness” value amounted to 9.2 A, the “Bitter Intensity In Mouth” value is 1.0 B and the “Sweet Intensity In Mouth” value came out at 8.0 A. Moreover, the “Sweet Linger Intensity” value in assay [2] is recorded as 5.3 A. Further, the “Overall Max Bitterness**” value in assay [3] is 2.0 B.
With `C[C@H](CC[C@@H](O[C@@H]1O[C@H](CO[C@@H]2O[C@H](CO[C@@H]3O[C@H](CO)[C@@H](O)[C@H](O)[C@H]3O)[C@@H](O)[C@H](O)[C@H]2O)[C@@H](O)[C@H](O)[C@H]1O[C@@H]1O[C@H](CO)[C@@H](O)[C@H](O)[C@H]1O)C(C)(C)O)[C@H]1CC[C@@]2(C)[C@@H]3CC=C4[C@@H](CC[C@H](O[C@@H]5O[C@H](CO[C@@H]6O[C@H](CO)[C@@H](O)[C@H](O)[C@H]6O)[C@@H](O)[C@H](O)[C@H]5O)C4(C)C)[C@]3(C)[C@H](O)C[C@]12C` [CC-00403], in assay [4], the “Bitterness In Mouth” value is recorded as 2.6 ± 3.0, the “Bitterness Linger (~60 sec)” value is 2.2 ± 3.4, the “Bitterness Overall Max” value stood at 5.0 ± 3.4 and the “Sweetness In Mouth” value turned out to be 6.3 ± 1.4. In assay [4], the “Sweetness Linger (~60 sec)” value came out at 3.1 ± 2.5 and the “Sweetness Overall Max” value was found to be 7.0 ± 1.5.
As to `C[C@H](CC[C@@H](O[C@@H]1O[C@H](CO[C@@H]2O[C@H](CO)[C@@H](O)[C@H](O)[C@H]2O)[C@@H](O)[C@H](O)[C@H]1O[C@@H]1O[C@H](CO)[C@@H](O)[C@H](O)[C@H]1O)C(C)(C)O)[C@H]1CC[C@@]2(C)[C@@H]3CC=C4[C@@H](CC[C@H](O[C@@H]5O[C@H](CO[C@@H]6O[C@H](CO)[C@@H](O)[C@H](O)[C@H]6O)[C@@H](O)[C@H](O)[C@H]5O)C4(C)C)[C@]3(C)[C@H](O)C[C@]12C` [Mog V], in assay [2], the “Bitter Aftertaste Intensity” value was found to be 0.4, the “Overall Max Sweetness” value is 8.5, the “Bitter Intensity In Mouth” value stood at 0.5 and the “Sweet Intensity In Mouth” value was 7.0. Also, the “Sweet Linger Intensity” value in assay [2] was 3.5. Further, the “Overall Max Bitterness**” value in assay [3] is on record as 1.1.
Regarding `OC[C@H]1O[C@@](CO)(O[C@H]2O[C@H](CO)[C@@H](O)[C@H](O)[C@H]2O)[C@@H](O)[C@@H]1O` [Sucrose, sucrose, reference compound], in assay [1], the “Bitterness In Mouth” value turned out to be 0.15 ± 0.2, the “Bitterness Linger (~60 sec)” value is recorded as 0.1 ± 0.1, the “Bitterness Overall Max” value is 0.3 ± 0.3 and the “Sweetness In Mouth” value is on record as 4.3 ± 2.1. In addition, in assay [1], the “Sweetness Linger (~60 sec)” value was determined as 1.6 ± 1.8 and the “Sweetness Overall Max” value is reported as 4.5 ± 1.9. Besides, in assay [4], the “Bitterness In Mouth” value was 2.3 ± 2.3, the “Bitterness Linger (~60 sec)” value is on record as 0.8 ± 1.1, the “Bitterness Overall Max” value was 2.8 ± 2.1 and the “Sweetness In Mouth” value is recorded as 7.2 ± 0.9. For the same compound, in assay [4], the “Sweetness Linger (~60 sec)” value is reported as 2.1 ± 1.8 and the “Sweetness Overall Max” value amounted to 7.4 ± 0.8.
